“And” between values parts separate entries of the source, which are not always exact repeats. Equal entries are not always repeated. Where two headings read alike, the source gives them in different places.
Assays:
cathepsin B = conditions: cited from earlier work
[1] = target: T1, Bovine spleen cathepsin B (Bos taurus, UniProt P07688); type: biochemical; conditions: for Products released upon treatment with cathepsin B: HPLC analysis
T1 construct: Bovine spleen cathepsin B (Sigma-Aldrich); purchased Sigma-Aldrich; host or cells: bovine spleen (tissue-derived)
Description: Bovine spleen cathepsin B (Sigma-Aldrich), dissolved in phosphate buffered saline (pH 7.2, 1 mg/mL final concentration), was activated as previously described (Bajkowski, A. S.; Frankfater, A. Specific Spectrophotometric Assays for Cathepsin B. Anal. Biochem. 1975, 68, 119-127). […] In the case of the naphthol ether 2, a 5.0 mM solution in MeOH was diluted to a final concentration of 0.22 mM. Periodically, aliquots were taken, quenched with an equal volume of MeCN, centrifuged, and 100 μL injections analyzed by HPLC (4.6 mm×15 cm C18 column) with detection between 210 and 400 nm. […] The gradient elution was 90% to 10% A over 10 min, followed by 5 min at 10% A, and the flow rate was 1.0 mL/min. The disappearance of substrate and the appearances of released alcohol and Cbz-val-cit were recorded. Cathepsin B hydrolysis rates were calculated according to the disappearance of substrate (Table 7).

[2] = pooled human serum, 37° C.; for Stability Human serum, loss of starting material: 7 days
Description: Solutions of the substrates (0.08-0.14 mM in DMSO, and 0.22 mM in MeOH for 2) were diluted 10-20-fold in PBS, acetate buffer (25 mM, pH 5.1), or pooled human serum, and incubation was carried out at 37° C. For the serum studies, equal volumes of MeCN were added and the samples were centrifuged prior to HPLC analysis. The other samples were injected directly into the HPLC.

[3] = Stability studies in PBS pH 7.2 or acetate buffer pH 5.1 at 37° C., HPLC; type: physicochemical; conditions: for Stability pH 5.1, loss of starting material: acetate buffer pH 5.1, 37° C.; for Stability pH 5.1, loss of starting material / Stability pH 7.2, loss of starting material: 7 days; for Stability at pH 5.1 (in words): pH 5.1, 37° C.; for Stability at pH 5.1 (in words) / Stability at pH 7.2 (in words): absence of added enzyme; for Stability at pH 7.2 (in words): pH 7.2, 37° C.; for Stability pH 7.2, loss of starting material: phosphate buffered saline pH 7.2, 37° C.
Description: The other samples were injected directly into the HPLC.

[4] = system: L2987 human lung adenocarcinoma cells; test: In vitro cytotoxicity assay, [3H] thymidine incorporation; type: cell-based
Description: (§1) FIG. 1 is a graph showing the cytotoxic effects on L2987 human lung adenocarcinoma (A and D), WM266/4 (B), and IGR-39 (C) human melanoma cell lines. The cells were exposed to various concentrations of the drugs for 24 h, washed, incubated for a further 48 h, and the cytotoxic activities were quantified through the incorporation of [^3H] thymidine relative to untreated control cells.
(§2) The cell lines (L2987 human lung adenocarcinoma, WM266/4 and IGR-39 human melanomas) were exposed to the agents for 24 h, washed, and viability was determined two days later by measuring the incorporation of ^3H-thymidine compared to the untreated controls.
L2987 human lung adenocarcinoma cells were obtained as previously described (Svensson, H. P.; Vrudhula, V. M.; Emsweiler, J. E.; MacMaster, J. F.; Cosand, W. L.; Senter, P. D.; Wallace, P. M. In Vitro and In Vivo Activities of a Doxorubicin Prodrug in Combination with Monoclonal Antibody β-Lactamase Conjugates. Cancer Res. 1995, 55, 2357-2365). WM266/4 and IGR-39 human melanoma cells were obtained from ATCC (Manassas, Va.) and DSMZ (Braunschweig, Germany), respectively. L2987 and WM266/4 cells were grown in Roswell Park Memorial Institute (RPMI) medium containing 10% fetal bovine serum and 10U/mL penicillin G and 10 μg/mL streptomycin sulfate. Dulbecco's modified Eagle's medium was used in place of RPMI for the IGR-39 cells. The cells (2,500 cells in 0.1 mL medium) were plated into 96-well plates, and after 24 h at 37° C., various concentrations of the drugs in medium (50 μL) were added in triplicate. Incubation was continued for an additional 24 h, the cultures were washed, and fresh medium (0.15 mL) was added. After 48 h at 37° C., [^3H] thymidine (25 μL, 0.5 μCi/well) was added, and the cultures were frozen and harvested 4 h later. Incorporation of label was measured using a β-counter.

[5] = system: IGR-39 human melanoma cells; conditions: 24 h exposure, 48 h further, range stated for all three cell lines
Description: as §1, §2
(§3) L2987 human lung adenocarcinoma cells were obtained as previously described (Svensson, H. P.; Vrudhula, V. M.; Emsweiler, J. E.; MacMaster, J. F.; Cosand, W. L.; Senter, P. D.; Wallace, P. M. In Vitro and In Vivo Activities of a Doxorubicin Prodrug in Combination with Monoclonal Antibody β-Lactamase Conjugates. Cancer Res. 1995, 55, 2357-2365). WM266/4 and IGR-39 human melanoma cells were obtained from ATCC (Manassas, Va.) and DSMZ (Braunschweig, Germany), respectively. L2987 and WM266/4 cells were grown in Roswell Park Memorial Institute (RPMI) medium containing 10% fetal bovine serum and 10U/mL penicillin G and 10 μg/mL streptomycin sulfate. […] Incorporation of label was measured using a β-counter.

[6] = system: WM266/4 human melanoma cells; conditions: 24 h exposure, 48 h further, range stated for all three cell lines
Description: as §1, §2, §3

[7] = loss of starting material at 37° C. in pH 5.1 acetate buffer

Compound: COc1cccc2c1C(=O)c1c(O)c3c(c(O)c1C2=O)CC(O)(C(=O)CO)CC3OC1CC(NC(=O)OCc2ccc(NC(=O)C(CCCNC(N)=O)NC(=O)C(NC(=O)OCc3ccccc3)C(C)C)cc2)C(O)C(C)O1 (stereo not shown) [Cbz-val-cit-PAB-doxorubicin carbamate]
- Release of drug upon treatment with cathepsin B (cathepsin B): released active doxorubicin

Compound: CC(C)[C@H](NC(=O)OCc1ccccc1)C(=O)N[C@@H](CCCNC(N)=O)C(=O)Nc1ccc(COc2cccc3ccccc23)cc1 [Compound 2, CBZ-VAL-CIT-PAB-1-O-NAPHTHOL]
- Products released upon treatment with cathepsin B [1]: the products formed were naphthol and Cbz-val-cit-COOH
- Specific activity of cathepsin B ([1]; pH 5.1): 350 nmol/min/mg and 350 nmol/ nmol/min/mg
- Stability in human serum (in words) [2]: no breakdown
- Stability Human serum, loss of starting material [2]: 0% loss, 7 days
- Stability pH 5.1, loss of starting material [3]: 0% loss, 7 days
- Stability at pH 5.1 (in words) [3]: no breakdown
- Stability at pH 7.2 (in words) [3]: no breakdown
- Stability pH 7.2, loss of starting material [3]: 0% loss, 7 days

Compound: COc1cc([C@@H]2c3cc4c(cc3[C@@H](O[C@@H]3O[C@@H]5CO[C@@H](C)O[C@H]5[C@H](O)[C@H]3O)[C@H]3COC(=O)[C@H]23)OCO4)cc(OC)c1OCc1ccc(NC(=O)[C@H](CCCNC(N)=O)NC(=O)[C@@H](NC(=O)OCc2ccccc2)C(C)C)cc1 [Compound 6, CBZ-VAL-CIT-PAB-O-ETOPOSIDE]
- Cytotoxic activity, times etoposide (VIIIa) more active than 6 ([4]; L2987, 24 h exposure, 48 h further, range stated for all three cell lines): 15-22 times
- Products released upon treatment with cathepsin B [1]: release of etoposide (VIIIa)
- Specific activity of cathepsin B [1, 7]: 160 nmol/ nmol/min/mg
- Cytotoxic activity, times etoposide (VIIIa) more active than 6 [5]: 15-22 times
- Cytotoxic activity, times etoposide (VIIIa) more active than 6 [6]: 15-22 times
- Stability pH 5.1, loss of starting material [3]: 0% loss, 7 days
- Stability at pH 5.1 (in words) [3]: stable
- Stability at pH 7.2 (in words) [3]: stable
- Stability pH 7.2, loss of starting material [3]: 0% loss, 7 days

Compound: COc1ccc(/C=C\c2cc(OC)c(OC)c(OC)c2)cc1OCc1ccc(NC(=O)[C@H](CCCNC(N)=O)NC(=O)[C@@H](NC(=O)OCc2ccccc2)C(C)C)cc1 [Compound 7, CBZ-VAL-CIT-PAB-3′-O-COMBRETASTATIN A-4]
- Factor less potent than combretastatin A-4 (VIIIb) ([4]; L2987 human lung adenocarcinoma cells (FIG. 1D)): 13
- Products released upon treatment with cathepsin B [1]: combretastatin A-4 (VIIIb)
- Specific activity of cathepsin B [1, 7]: 61 nmol/ nmol/min/mg
- Stability in human serum (in words) [2]: stable
- Stability Human serum, loss of starting material [2]: 0% loss, 7 days
- Stability pH 5.1, loss of starting material [3]: 0% loss, 7 days
- Stability at pH 5.1 (in words) [3]: stable
- Stability at pH 7.2 (in words) [3]: stable
- Stability pH 7.2, loss of starting material [3]: 0% loss, 7 days

Compound: COc1ccc(/C=C\c2cc(OC)c(OC)c(OC)c2)cc1OC(=O)OCc1ccc(NC(=O)[C@H](CCCNC(N)=O)NC(=O)[C@@H](NC(=O)OCc2ccccc2)C(C)C)cc1 [Compound 11, CBZ-VAL-CIT-PAB-OCO-COMBRETASTATIN A-4]
- Cytotoxicity compared with combretastatin A-4 (VIIIb), in words ([4]; FIG. 1D): as cytotoxic as combretastatin A-4 (VIIIb)
- Products released upon treatment with cathepsin B [1]: VIIIb
- Specific activity of cathepsin B [1, 7]: 32 nmol/ nmol/min/mg
- Stability in aqueous environments (in words) ([3]; aqueous environments): unstable

Compound: CBZ-VAL-CIT-PAB-O-(N-AC)-NOR [Compound 5]
- Products released upon treatment with cathepsin B [1]: no N-acetylnorephedrine was detected
- Specific activity of cathepsin B [1, 7]: 145 nmol/ nmol/min/mg
- Stability pH 5.1, loss of starting material [3]: 0% loss 7 d
- Stability pH 7.2, loss of starting material [3]: 0% loss 7 d

Compound: CBZ-VAL-CIT-PAB-OCO-(1S, 2R)-(N-ACETYL)NOREPHEDRINE [Compound 10]
- Products released upon treatment with cathepsin B [1]: formation of 4
- Specific activity of cathepsin B [1, 7]: 150 nmol/ nmol/min/mg

Source: US7553816B2, “p-amidobenzylethers in drug delivery agents” (priority 2001, dated 2009)
